The test system of assay [1] is Rattus norvegicus. The assay can be described thus: Antithrombotic activity was determined in rat upon oral administration at dose 20 mg/kg (4 hours before). In kind it is functional.
The test system of assay [2] is Rattus norvegicus. The assay can be described thus: Antithrombotic activity was determined in rat upon oral administration at dose 3 mg/kg (4 hours before). The class given is functional.

Results on four compounds are retold here after ChEMBL document CHEMBL1130865, “Carbaxylosides of 4-ethyl-2-oxo-2H-benzopyran-7-yl as non-hydrolyzable, orally active venous antithrombotic agents” (1998).

For `CCc1cc(=O)oc2cc(OC3CCC(O)[C@H](O)[C@H]3O)ccc12` (some centres undefined), the Activity in the assay on Rattus norvegicus [1] is 20%.
In the assay with Rattus norvegicus [2], `CCc1cc(=O)oc2cc(OC3OCC(O)[C@H](O)[C@H]3O)ccc12` (some centres undefined) came in with an Activity of 71%.
The same measure, in the same setting: the same measure for `CCc1cc(=O)oc2cc(OC3SCC(O)[C@H](O)[C@H]3O)ccc12` (some centres undefined): 71%.
Take `CCc1cc(=O)oc2cc(OC3CCC(O)C(O)C3O)ccc12` (single isomer, unassigned; (-)): the Activity in the assay on Rattus norvegicus [1] is reported as 96%.
